Reference: patent US10561703B2, “Method of modulating sex hormone levels using a sex hormone secretion modulator” (GEMVAX & KAEL CO., LTD., priority 2013, dated 2020)

Tested on: FSH
Experiment: FSH level in blood (serum CLIA) after repeated sc PEP-1
Assay type: in vivo, SD rats
Experimental: PEP-1 (peptide of SEQ ID NO: 1), lyophilized white powder, obtained according to the method mentioned in example 1 was dissolved in 0.9% of saline, considering the correction factor of PEP-1 (purity: 94.13%, content: 92.36%, correction factor: 1.15). 50 mg/mL stock solution was further diluted into 20 mg/mL, 2 mg/mL, and 1 mg/mL with 0.9% saline, and stored at 4° C. for a week until the use.
The purpose of this example is to confirm the change of sexual hormones in blood from SD rats with 7 days repeated daily administration of SEQ ID NO: 1 peptide, PEP-1. This experiment followed the Ethics Regulation of Animal Test by KAMSI Inc. (Korea Animal Medical Science Institute). In addition, this experiment, Non-GLP experiment, referred to the MFDS (Ministry of Food and Drug Safety) notification; Agent 2013-40 (5th April 2013), Principles of Good Laboratory Practice (1997).
SPF Rats (Crlj:CD(SD)) were purchased from ORIENTBio Inc. (Mokdong-ri, Buk-myeon, Gapyeong-gun, Gyeonggi-do, Republic of Korea). 75 male (6.5 weeks old and 190˜210 g) and 75 female (6.5 weeks old and 160˜180 g) rats were monitored for 4 days, and 64 of male and female rats (each) were selected for the experiment. Raising condition is as follows; 23±3° C. of temperature, […] of relative humidity, 10˜20 times/hr of number of air changes, 12 hours (8 a.m.˜8 p.m.) of lighting with 150˜300 Lux of intensity.
64 male and female […] (mentioned above) were divided into 8 groups. Administration regimen, for example, drugs, routes, dosages, and volumes were as follows:
The detailed administration regimen is as follows; once a day, twice a day and twice a week in each experimental group. Injection initiated at 10 a.m. every day, and each rat was injected at one minute intervals. Rats in Group 9, 10, 13 and 14 were injected twice a week. Administration of high dose test agent preceded that of low dose. The volume of injection was calculated using recently measured weight of rats, and it was 5 mL/kg. Subcutaneous injection was performed as follows; assistant tilted the back of rat upward, and experimenter sterilized the back of rat with 70% alcohol, followed by subcutaneous injection of test agent with 26 G syringe.
1.4 mL of blood sample (0.7 mL of serum) was collected after measurement of weight (Day 0). Next day (1 Day), 1.4 mL of blood sample (0.7 mL of serum) was collected twice after injection of test agent (4 hrs and 8 hrs after administration of test agent). For next 6 days (Day 2˜Day 7), 1.4 mL of blood was extracted once everyday (4 hours after injection of test agent). Dose and volume of test agent of each group followed the Table 3, and injection time zone was same every day. Blood was extracted from the jugular vein, and left at room temperature for 30 minutes. Serum was separated using centrifugation (10,000 rpm for 5 minutes), and stored at −70±5° C. in Deep freezer until the use. Blood extraction from each subject was done in the same time zone every day.
A CLIA (Chemi-Luminescence Immune Assay) Kit was used to analyze Testosterone, Estradiol E2, FSH (Follicle stimulating hormone), and LH (Luteinizing hormone). Analysis was completed within 48 hrs after blood extraction (Laboratory Medicine Department, Chung-Ang University Hospital), and detailed method is as follows; One-way ANOVA was used to verify the comparison between the vehicle and PEP-1, and between different doses of PEP-1. For further analysis, Duncan test was used as parametric test and Dunnett's test as non-parametric test. p<0.05 represents the statistical significance, and all statistical analysis was carried out with SPSS 10.1.
FSH was analyzed using the samples prepared from example 2. 100 μL of serum was used for analysis. Fundamentals of analysis is Two-site sandwich immunoassay based on direct chemi-luminescent. As mentioned in example 2, CLIA (Chemi-luminescence immune assay) Kit was used, following the manufacture's protocol.

EARPALLTSRLRFIPK (listed as Homo sapiens) [PEP-1, hormone secretion modulator / GnRH analog]
FSH level in blood (G3 Male 5 mg/kg sc 1/day x7, 7 days): 0.10 mIU/mL | FSH level in blood (G4 Female 5 mg/kg sc 1/day x7, 4 hr): 0.17 mIU/mL | FSH level in blood (G4 Female 5 mg/kg sc 1/day x7, 8 hr): 0.30 mIU/mL | FSH level in blood (G4 Female 5 mg/kg sc 1/day x7, 2 days): 0.32 mIU/mL | FSH level in blood (G4 Female 5 mg/kg sc 1/day x7, 3 days): 0.12 mIU/mL | FSH level in blood (G4 Female 5 mg/kg sc 1/day x7, 4 days): 0.17 mIU/mL | FSH level in blood (G4 Female 5 mg/kg sc 1/day x7, 5 days): 0.21 mIU/mL | FSH level in blood (G4 Female 5 mg/kg sc 1/day x7, 6 days): 0.13 mIU/mL | FSH level in blood (G4 Female 5 mg/kg sc 1/day x7, 7 days): 0.17 mIU/mL | FSH level in blood (G4 Female 5 mg/kg sc 1/day x7, pre): 0.20 mIU/mL | FSH level in blood (G6 Female 10 mg/kg sc 1/day x7, 4 hr): 0.31 mIU/mL | FSH level in blood (G6 Female 10 mg/kg sc 1/day x7, 8 hr): 0.48 mIU/mL | FSH level in blood (G6 Female 10 mg/kg sc 1/day x7, 2 days): 0.31 mIU/mL | FSH level in blood (G6 Female 10 mg/kg sc 1/day x7, 3 days): 0.20 mIU/mL | FSH level in blood (G6 Female 10 mg/kg sc 1/day x7, 4 days): 0.17 mIU/mL | FSH level in blood (G6 Female 10 mg/kg sc 1/day x7, 5 days): 0.19 mIU/mL | FSH level in blood (G6 Female 10 mg/kg sc 1/day x7, 6 days): 0.1 mIU/mL | FSH level in blood (G6 Female 10 mg/kg sc 1/day x7, 7 days): 0.16 mIU/mL | FSH level in blood (G6 Female 10 mg/kg sc 1/day x7, pre): 0.31 mIU/mL | FSH level in blood (G8 Female 10 mg/kg sc 2/day x4, 4 hr): 0.26 mIU/mL | FSH level in blood (G8 Female 10 mg/kg sc 2/day x4, 8 hr): 0.21 mIU/mL | FSH level in blood (G8 Female 10 mg/kg sc 2/day x4, 2 days): 0.28 mIU/mL | FSH level in blood (G8 Female 10 mg/kg sc 2/day x4, 3 days): 0.18 mIU/mL | FSH level in blood (G8 Female 10 mg/kg sc 2/day x4, 4 days): 0.13 mIU/mL | FSH level in blood (G8 Female 10 mg/kg sc 2/day x4, 5 days): 0.16 mIU/mL | FSH level in blood (G8 Female 10 mg/kg sc 2/day x4, 6 days): 0.15 mIU/mL | FSH level in blood (G8 Female 10 mg/kg sc 2/day x4, 7 days): 0.21 mIU/mL | FSH level in blood (G8 Female 10 mg/kg sc 2/day x4, pre): 0.26 mIU/mL | FSH level in blood (G9 Male 10 mg/kg sc 2/week x2 (days 1,7), 4 hr): 0.29 mIU/mL | FSH level in blood (G9 Male 10 mg/kg sc 2/week x2 (days 1,7), 8 hr): 0.28 mIU/mL | FSH level in blood (G9 Male 10 mg/kg sc 2/week x2 (days 1,7), 2 days): 0.22 mIU/mL | FSH level in blood (G9 Male 10 mg/kg sc 2/week x2 (days 1,7), 3 days): 0.17 mIU/mL | FSH level in blood (G9 Male 10 mg/kg sc 2/week x2 (days 1,7), 4 days): 0.37 mIU/mL | FSH level in blood (G9 Male 10 mg/kg sc 2/week x2 (days 1,7), 5 days): 0.25 mIU/mL | FSH level in blood (G9 Male 10 mg/kg sc 2/week x2 (days 1,7), 6 days): 0.14 mIU/mL | FSH level in blood (G9 Male 10 mg/kg sc 2/week x2 (days 1,7), 7 days): 0.15 mIU/mL | FSH level in blood (G9 Male 10 mg/kg sc 2/week x2 (days 1,7), pre): 0.28 mIU/mL | FSH level in blood (G10 Female 10 mg/kg sc 2/week x2 (days 1,7), 4 hr): 0.26 mIU/mL | FSH level in blood (G10 Female 10 mg/kg sc 2/week x2 (days 1,7), 8 hr): 0.44 mIU/mL | FSH level in blood (G10 Female 10 mg/kg sc 2/week x2 (days 1,7), 2 days): 0.37 mIU/mL | FSH level in blood (G10 Female 10 mg/kg sc 2/week x2 (days 1,7), 3 days): 0.21 mIU/mL | FSH level in blood (G10 Female 10 mg/kg sc 2/week x2 (days 1,7), 4 days): 0.18 mIU/mL | FSH level in blood (G10 Female 10 mg/kg sc 2/week x2 (days 1,7), 5 days): 0.32 mIU/mL | FSH level in blood (G10 Female 10 mg/kg sc 2/week x2 (days 1,7), 6 days): 0.23 mIU/mL | FSH level in blood (G10 Female 10 mg/kg sc 2/week x2 (days 1,7), 7 days): 0.28 mIU/mL | FSH level in blood (G10 Female 10 mg/kg sc 2/week x2 (days 1,7), pre): 0.31 mIU/mL | FSH level in blood (G11 Male 100 mg/kg sc 1/day x7, 4 hr): 0.27 mIU/mL | FSH level in blood (G11 Male 100 mg/kg sc 1/day x7, 8 hr): 0.36 mIU/mL | FSH level in blood (G11 Male 100 mg/kg sc 1/day x7, 2 days): 0.17 mIU/mL | FSH level in blood (G11 Male 100 mg/kg sc 1/day x7, 3 days): 0.14 mIU/mL
